Data published in patent US7670836B2, “Antimicrobial peptide isolated from Penaeus monodon” (priority 2003, dated 2010).
≈ marks a conversion by molar mass, not a printed value. Where two headings read alike, the source gives them in different places. No end group written: not given here.

What was measured:
E. coli [1] = assay: microbe, parasite or virus in culture
Experimental: (§1) Monodoncin was tested for its antibacterial activities against various Gram (−) bacteria, including E. coli, Vibrio harveyi, Vibrio alginolyticus, and Salmonella cholesaesuis, various Gram (+) bacteria, such as Aerococcus viridian, and filamentous fungi, such as Fusarium pisi.
(§2) The bacteria were cultured under conventional methods. For example, E. coli strain was cultured in LB, 37° C. The marine microorganisms that are pathogenic for shrimp, such as Vibrio harveyi and Vibrio alginolyticus, were cultured in trypticase soy broth/agar (1.5% NaCl), 25° C.

Vibrio alginolyticus = assay: microbe, parasite or virus in culture
Experimental: as §1, §2

Vibrio harveyi [2] = assay: microbe, parasite or virus in culture
Experimental: as §1, §2

[3] = test system: Salmonella choleraesuis Strand 74
Experimental: (§3) The minimal inhibitory concentration (MIC) and minimal bactericidal concentration (MBC) were obtained to determine bacteriostatic and bactericidal activities, respectively, for each strain of the bacteria listed above. […] The lowest concentration which inhibited bacterial growth was deemed the MIC. The MBC was determined by spreading 100 μl from each tube of the MIC on an LB or TSA plate and incubating overnight.

[4] = test system: Salmonella choleraesuis Strand 75
Experimental: as §3

Aerococcus viridian = assay: Bacteriostatic (MIC) and bactericidal (MBC) analysis against Aerococcus viridian; type: cell-based
Experimental: as §1

Fusarium pisi = assay: MIC and MBC analysis against the filamentous fungus Fusarium pisi; type: cell-based
Experimental: as §1

Fusarium oxysporum = assay: MIC and MBC analysis against the filamentous fungus Fusarium oxysporum; type: cell-based
Vibrio harveyi [5] = assay: Mortality of tiger shrimp after Vibrio harveyi challenge (FIG. 5); type: in vivo, Penaeus monodon
Experimental: (-⋄-): PBS control (negative control); (-▪-): Vibrio harveyi challenge (positive control); (-▴-): cecropin+Vibrio harveyi (non-monodoncin treatment group); (-●-): monodoncin+Vibrio harveyi (monodoncin treatment group).
Vibrio harveyi is a gram-negative marine bacterium that is in the natural living environment of the tiger shrimp. A suspension of the microorganism […] containing 10^5 cells was used for each tiger shrimp. The suspension was injected into the shrimp abdominal muscle. Hemocytes were collected as Example 1 at different times (from 0 to 72 hours) post-injection. Unchallenged animals were used as controls.

E. coli [6] = assay: SEM analysis of interaction of monodoncin with E. coli; type: cell-based, Escherichia coli; conditions: monodoncin 10 μM, 12 hrs of treatment
Experimental: Monodoncin at […] was used to treat E. Coli and Vibrios, and the pathogens prior to and after the treatment were monitored under Scanning Electron Microscope (SEM) and Atomic Force Microscope (AFM).
Scanning electron microscopy (SEM) was conducted by incubating […] of E. coli (109 C.F.U./ml) with or without 50 μl monodoncin (10000 μM) at 37° C. for 1 h, 3 h, 6 h, and 12 h. Three milliliters of each of the bacterial suspensions (at various time frames) were fixed by adding 1 ml of 6% glutaraldehyde in 0.1 M sodium cacodylate trihydrate buffer (pH 6.8). After fixation for 1 h at […], the bacterial suspensions were pelleted, the used fixative was removed, 2 ml of the new fixative were added, and the bacteria were incubated for 5 min at […] Two additional 5-min fixations were conducted, followed by addition of 2 ml of 1% osmium tetroxide in 0.1 M cacodylate buffer, and the fixation was allowed to proceed for 30 min at […] The osmium tetroxide was removed, and the bacterial suspensions were washed in 2 ml of 0.1 M cacodylate buffer. […] The SEM mounts were then sputter coated with gold (Edwards S150A sputter coater; Edwards High Vacuum, Crawley, West Sussex, England) and analyzed on a Hitachi H300-3010 scanning image accessory electron microscope.

GWGSFFKKAAHVGKHVGKAALTHYL-NH2 (C-terminus assumed) [Pleurocidin, pleurocidin]
MBC (E. coli [1]): 500 µM
MIC (E. coli [1]): 450 µM
MBC (Vibrio alginolyticus): >500 µM
MIC (Vibrio alginolyticus): 500 µM
MBC (Vibrio harveyi [2]): 200 µM
MIC (Vibrio harveyi [2]): 200 µM

CC1(C)S[C@@H]2[C@H](NC(=O)[C@H](N)c3ccc(O)cc3)C(=O)N2[C@H]1C(=O)O [Amoxicillin, amoxicillin]
MIC ([3]; Strand 74, amoxicillin alone): >64 µg
MIC ([4]; Strand 75, amoxicillin alone): >64 µg

Cecropin
MBC ([3]; Strand 74, peptide alone): 31.2 µg/mL
MIC ([3]; Strand 74, peptide alone): 16.5 µg/mL
MBC ([4]; Strand 75, peptide alone): >31.2 µg/mL
MIC ([4]; Strand 75, peptide alone): 31.2 µg/mL

magainins
MBC (E. coli [1]; E. coli): 70 µM
MIC (E. coli [1]; E. coli): 40 µM
MBC (Vibrio alginolyticus; Vibrio alginolyticus): 300 µM
MIC (Vibrio alginolyticus; Vibrio alginolyticus): 150 µM
MBC (Vibrio harveyi [2]; Vibrio harveyi): 30 µM
MIC (Vibrio harveyi [2]; Vibrio harveyi): 30 µM
MBC (Aerococcus viridian): 5 µM
MIC (Aerococcus viridian): 1 µM
MBC (Fusarium pisi): 1 µM
MIC (Fusarium pisi): 1 µM
MBC (Fusarium oxysporum): 1 µM
MIC (Fusarium oxysporum): 1 µM

CN(C)[C@@H]1C(O)=C(C(N)=O)C(=O)[C@@]2(O)C(O)=C3C(=O)c4c(O)cccc4[C@@](C)(O)[C@H]3C[C@@H]12 [Tetracycline, tetracycline]
MBC (E. coli [1]; Escherichia coli): 403 µM (≈ 179 µg/mL)
MBC (Vibrio alginolyticus; Vibrio alginolyticus): > 202 µM
MIC (Vibrio alginolyticus; Vibrio alginolyticus): 25.2 µM (≈ 11.2 µg/mL)
MBC (Vibrio harveyi [2]; Vibrio harveyi): 403 µM (≈ 179 µg/mL)
MIC (Vibrio harveyi [2]; Vibrio harveyi): 6.3 µM (≈ 2.8 µg/mL)
MBC (Aerococcus viridian): 300 µM (≈ 133 µg/mL)
MIC (Aerococcus viridian): 30 µM (≈ 13.3 µg/mL)
MBC (Fusarium pisi; Fusarium vanettenii): > 500 µM
MIC (Fusarium pisi; Fusarium vanettenii): 300 µM (≈ 133 µg/mL)
MBC (Fusarium oxysporum): 500 µM (≈ 222 µg/mL)
MIC (Fusarium oxysporum): 500 µM (≈ 222 µg/mL)

QGYQGGYTRPFPRPPYGGGYHPVPVCTSCHRLSPLQARACCRQLGRCCDAKQTYG (cysteines drawn unpaired) [Monodoncin]
mortality rate relative to that in the untreated group (Vibrio harveyi [5]): 40%
reduction of tiger shrimp mortality (Vibrio harveyi [5]): at least 40%
number of bacteria in the culture (E. coli [6]): significantly reduced
